# Test results: patent US6989153B2, “Radiation sensitive liposomes” (Varian Medical Systems Technologies, Inc., priority 1999, dated 2006)
# Experiment: Ionizing radiation initiated polymerization of liposomes, by loss of monomer absorption intensity
# Format: physicochemical
# Details: for dependence of extent of polymerization on continuous or discontinuous exposure: ionizing radiation; for effect of dissolved oxygen on ionizing radiation initiated polymerization: liposomes in aqueous buffer, maximum dose rate 2.1×10^4 rad/h
# Text: The relative sensitivity to ionizing radiation of liposomes composed of either bis-SorbPC (1; FIG. 5), bis-DenPC (2; FIG. 5), or bis-AcrylPC (3; FIG. 5) was investigated. These polymerizable colipids have different reactivities that control the initial rate of polymerization, extent of polymerization, and inhibition by oxygen. The interaction of ionizing radiation with water produces radical species that can initiate radical chain polymerizations.
# The rate of the ionizing radiation initiated polymerization (Rp) of liposomes composed of either bis-SorbPC, bis-DenPC, or bis-AcrylPC was determined by the loss of monomer absorption intensity. The maximum dose rate at the liposome samples was 2.1×10^4 rad/h. This intensity could be attenuated if desired. […] Radical polymerization of acryloyl functionalities are very sensitive to oxygen due to the high energy of the propagating species. In contrast, if the bis-AcrylPC liposome suspension was purged of oxygen the monomer could be converted to polymer in a few minutes. The Rp for bis-SorbPC liposomes in water (with or without oxygen present) was about twice that of bis-DenPC liposomes. The liposomes composed of bis-AcrylPC (without oxygen) were about 10 times more reactive than bis-SorbPC liposomes.
# The usual experimental protocol for radiation exposure of the liposome samples utilized discontinuous exposure because samples for all the time points were exposed together. […] In some experiments the samples were exposed continuously. The percent loss of monomer depended on the total exposure, but was insensitive to whether the radiation was delivered in a continuous or punctuated manner.
Molecule,dependence of extent of polymerization on continuous or discontinuous exposure,time for conversion of monomer to polymer (liposome suspension purged of oxygen),effect of dissolved oxygen on ionizing radiation initiated polymerization,"change in monomer concentration (oxygen present, after 120 minutes of irradiation at the maximum dose rate)",reactivity relative to bis-SorbPC liposomes (without oxygen),"rate of polymerization (Rp) relative to bis-DenPC liposomes (liposomes in water, with or without oxygen present)"
bis-AcrylPC,independent of whether the exposure to ionizing radiation was continuous or discontinuous,a few minutes,inhibited by oxygen,no change in the monomer concentration,about 10 times,–
bis-DenPC,–,–,relatively insensitive to the presence of dissolved oxygen,–,–,–
CC=CC=CC(=O)OCCCCCCCCCC(=O)OC[C@H](COP(=O)([O-])OCC[N+](C)(C)C)OC(=O)CCCCCCCCCOC(=O)C=CC=CC [bis-SorbPC],independent of whether the exposure to ionizing radiation was continuous or discontinuous,–,relatively insensitive to the presence of dissolved oxygen,–,–,about twice
